Structures are written as SMILES.

One assay deals with T1, human DGAT2 (hDGAT2) (Homo sapiens, UniProt Q96PD7).
T1 construct: made in house; host or cells: Sf-9 insect cells (baculovirus), membrane fraction
T1 sequence (Q96PD7 1-388): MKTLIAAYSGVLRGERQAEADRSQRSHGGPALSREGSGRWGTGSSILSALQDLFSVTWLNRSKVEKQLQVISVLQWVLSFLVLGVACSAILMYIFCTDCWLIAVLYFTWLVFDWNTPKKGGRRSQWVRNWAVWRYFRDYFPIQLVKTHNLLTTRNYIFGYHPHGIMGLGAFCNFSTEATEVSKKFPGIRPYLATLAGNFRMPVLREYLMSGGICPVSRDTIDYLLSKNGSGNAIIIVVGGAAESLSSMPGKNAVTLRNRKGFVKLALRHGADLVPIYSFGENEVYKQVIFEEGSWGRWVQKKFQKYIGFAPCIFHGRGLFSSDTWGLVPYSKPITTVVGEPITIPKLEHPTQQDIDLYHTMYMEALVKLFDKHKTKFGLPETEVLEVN
Put plainly: DGAT2 Enzymatic Activity Assay. Particulars: membrane prep of Sf-9 cells expressing hDGAT2; 25 μM diolein, 5 μM 13C oleoyl-CoA; 13C18-triolein by LC/MS/MS; read-out: DGAT2 IC50. It counts as biochemical. Put shortly:
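Membranes from Sf-9 cells expressing untagged human DGAT2 (8 ng/μL) incubated at rt in 100 mM Tris·Cl pH 7.0, 20 mM MgCl2, 5% ethanol with 25 μM diolein and 5 μM 13C oleoyl-CoA. 13C18-triolein product quantified by LC/MS/MS against 13C21-triolein internal standard; IC50 by 4-parameter fit.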
As for `CC(n1c(=O)n(-c2cc(OC(F)(F)F)ccc2F)c2ccc(C(=O)NC3(C)CCS(=O)(=O)CC3)cc21)C(C)(C)O` (single isomer, unassigned) [Example 71b, 1-(2-fluoro-5-(trifluoromethoxy)phenyl)-3-(3-hydroxy-3-methylbutan-2-yl)-N-(4-methyl-1,1-dioxidotetrahydro-2H-thiopyran-4-yl)-2-oxo-2,3-dihydro-1H-benzo[d]imidazole-5-carboxamide], the IC50 was 0.0054 µM.

As for `CC(C(F)F)n1c(=O)n(-c2cccc(OC(F)F)c2)c2ccc(C(=O)NC3(C)CCS(=O)(=O)CC3)cc21` (single isomer, unassigned) [Example 45a, 1-(3-(Difluoromethoxy)phenyl)-3-(1,1-difluoropropan-2-yl)-N-(4-methyl-1,1-dioxidotetrahydro-2H-thiopyran-4-yl)-2-oxo-2,3-dihydro-1H-benzo[d]imidazole-5-carboxamide], the IC50 was 0.012 µM.

Turning to `CC(C)n1c(=O)n(-c2cccc(OC(F)(F)F)c2)c2ncc(C(=O)NC3(C)CCS(=O)(=O)CC3)cc21` [Example 92, 1-isopropyl-N-(4-methyl-1,1-dioxo-thian-4-yl)-2-oxo-3-[3-(trifluoromethoxy)phenyl]imidazo[4,5-b]pyridine-6-carboxamide], the IC50 was determined as 0.236 µM.

For the compound `CCOc1cc(-n2c(=O)n(C(C)C(C)(C)O)c3cc(C(=O)NC4(C)CS(=O)(=O)C4)ccc32)c(F)cn1` (single isomer, unassigned) [Example 78a, 1-(2-ethoxy-5-fluoropyridin-4-yl)-3-(3-hydroxy-3-methylbutan-2-yl)-N-(3-methyl-1,1-dioxidothietan-3-yl)-2-oxo-2,3-dihydro-1H-benzo[d]imidazole-5-carboxamide], the IC50 came out at 0.123 µM.

`CCOc1cc(-n2c(=O)n(C(C)C(C)(C)O)c3cc(C(=O)NC4(C)CCS(=O)(=O)CC4)ccc32)c(F)cn1` (single isomer, unassigned) [Example 69b, 1-(2-ethoxy-5-fluoropyridin-4-yl)-3-(3-hydroxy-3-methylbutan-2-yl)-N-(4-methyl-1,1-dioxidotetrahydro-2H-thiopyran-4-yl)-2-oxo-2,3-dihydro-1H-benzo[d]imidazole-5-carboxamide]: the IC50 came out at 0.0039 µM.

`CC(C)n1c(=O)n(-c2cc(OC(F)F)ncc2F)c2cc(F)c(C(=O)NC3(C)CS(=O)(=O)C3)cc21` [Example 123, 1-(2-(difluoromethoxy)-5-fluoropyridin-4-yl)-6-fluoro-3-isopropyl-N-(3-methyl-1,1-dioxidothietan-3-yl)-2-oxo-2,3-dihydro-1H-benzo[d]imidazole-5-carboxamide]: the IC50 came out at 0.073 µM.

Still in this assay, the particulars now being: membrane prep of Sf-9 cells expressing hDGAT2; 25 μM diolein, 5 μM 13C oleoyl-CoA; 13C18-triolein by LC/MS/MS; read-out: Human DGAT2 IC50.
Turning to `CC(C)n1c(=O)n(-c2cc(OC(F)F)ccc2F)c2ccc(C(=O)N[C@@]3(C)CCS(=O)(=O)C3)cc21` [Example 81, (S)-1-(5-(Difluoromethoxy)-2-fluorophenyl)-3-isopropyl-N-(3-methyl-1,1-dioxidotetrahydrothiophen-3-yl)-2-oxo-2,3-dihydro-1H-benzo[d]imidazole-5-carboxamide], the IC50 was determined as 0.0063 µM.

On to `CC(n1c(=O)n(-c2cc(OC(F)F)ccc2F)c2ccc(C(=O)NC3(C)CS(=O)(=O)C3)cc21)C(C)(C)O` (single isomer, unassigned) [EX-65b, 1-(5-(difluoromethoxy)-2-fluorophenyl)-3-(3-hydroxy-3-methylbutan-2-yl)-N-(3-methyl-1,1-dioxidothietan-3-yl)-2-oxo-2,3-dihydro-1H-benzo[d]imidazole-5-carboxamide], for which the IC50 was determined as 0.0007 µM.

For `CC(C)n1c(=O)n(-c2cccc(OC(F)F)c2)c2cnc(C(=O)NC3(C)CS(=O)(=O)C3)cc21` [Example 105, 3-(3-(difluoromethoxy)phenyl)-1-isopropyl-N-(3-methyl-1,1-dioxidothietan-3-yl)-2-oxo-2,3-dihydro-1H-imidazo[4,5-c]pyridine-6-carboxamide], the IC50 is 1.8 µM.

By IC50 is commonly meant the concentration needed to halve the response being measured.

The values above are taken from US11976061B2, “Preparation of benzimidazolone derivatives as novel diacylglyceride O-acyltransferase 2 inhibitors” (Merck Sharp & Dohme LLC, priority 2020, dated 2024).
